Results reported in patent publication US5084082A, “Soybean plants with dominant selectable trait for herbicide resistance” (priority 1990, dated 1992).

Columns and labels:
tolerant tomato lines = settings: cited from earlier work
original cultivar = settings: original tomato cultivar; cited from earlier work
[1] = test system: Williams 82 (wild type soybean cultivar); test: Pilot study in modified Hydropot Solo hydroponic system; assay type: in vivo; settings: Williams 82, 100 ppb in nutrient solution, 10 days after planting
Experimental: (§1) A pilot study was conducted to determine whether the modified Hydropot Solo system could be used to consistently differentiate between previously isolated (Sebastian and Chaleff, 1987. Crop Science 27:948-952) SU-tolerant mutants and wild type soybean plants. Four Hydropot Solo units were prepared with each planting tank containing a lower layer of pea gravel and an upper layer of fine vermiculite as described previously. Each reservoir was filled with tap water supplemented with 1/4 tablespoon of Miracle Grow soluble fertilizer per gallon. One hydroponic unit served as an untreated control while the nutrient solution of each of the other three was supplemented with either 100, 300, or 1000 ppb of an experimental sulfonylurea herbicide Compound 12. Ten seeds each of Williams 82 (wild type soybean cultivar), mutant 1-184A, mutant 1-183A, mutant 1-166A, and mutant 1-126A were then planted 2 cm deep into the vermiculite layer of each of the four hydroponic units. The programmable timer was set to irrigate the planting tanks for four 30-minute intervals during each 24-hour period. […] Differences between mutant and wild type became less dramatic as the herbicide concentration increased to 1000 ppb. […] These observations confirmed that the modified Hydropot system could be used to select for herbicide tolerance. […]

[2] = test system: SU-tolerant mutants 1-184A, 1-183A, 1-166A, 1-126A; test: as above; assay type: in vivo, soybean
Experimental: as §1

[3] = test system: mutants that have heritable sulfonylurea tolerance; test: Pilot studies, threshold concentration in hydroponic system; assay type: in vivo, soybean; settings: sulfonylurea tolerant mutants, 100 mg/L used to irrigate the hydroponic system
Excerpt: (§2) The same sulfonylurea concentrations would select only highly resistant plants.

wild type soybeans = test: as above; assay type: in vivo, soybean; settings: 100 mg/L used to irrigate the hydroponic system
Excerpt: as §2

Row | SMILES | reduction in seedling weight (tolerant tomato lines) | reduction in seedling weight (original cultivar) | formation of unifoliolate leaves and secondary roots [1] | formation of unifoliolate leaves and secondary roots ([2]; tolerant mutant plants, 100 ppb in nutrient solution, 10 days after planting) | further development on prolonged exposure ([2]; tolerant mutants, 100 ppb, 20 to 28 days) | leaf formation [3] | leaf and root development (wild type soybeans)
1 | CN(C)C(=O)C(c1ccccc1)c1ccccc1 [diphenamid] | 25% | 40% |  |  |  |  | 
2 | COc1cc(OC)nc(NC(=O)NS(=O)(=O)c2cccc3c2S(=O)(=O)C(C)C3)n1 (single isomer, unassigned) [Compound 12, N-[[(4,6-dimethoxy-2-pyrimidinyl)amino]carbonyl]-2,3,-dihydro-2-methylbenzo [B] thiophene-7-sulfonamide, 1,1-dioxide] |  |  | could not | able to form both unifoliolate leaves and secondary roots | prevented further development | allow unifoliolate (but not trifoliolate) formation | consistently stunt or inhibit leaf and root development
